This experiment relates to human adipocytes. Put plainly: Lipolysis activation on human adipocytes in vitro (glycerin release). The note with it: 90 minutes at 37° C. It is filed as cell-based. An excerpt:
I. Evidence of the Lipolysis Activation Effect on Human Adipocytes in “in vitro” Survival The test used to emphasise the lipolysis activation of human adipocytes in the presence of Cecropia extracts, which are the subject of the present invention, is described below. Lipolysis is removal of triglycerides (or TG) stored in the adipocytes by a hormone-sensitive enzyme, triglyceride lipase (or TGL) which splits the TG into free fatty acids and glycerin which are removed in the blood circulation. The fatty acids can then be absorbed by the muscle cells to produce energy. 1) Principle of the in vitro Test Activation of lipolysis is evaluated by spectrophotometric metering of the rate of glycerin salted out by adipocytes, incubated “in vitro” with the substance to be tested present. The adipocytes are isolated by enzymatic digestion of subcutaneous human tissue by the so-called Rodbell method (see M. Rodbell: “Metabolism of isolated fat cells”. The journal of biological chemistry, Vol. 239, No. 2, pages 375 to 380, 1964). […] 3) Quantisation of the Lipolysis The rate of salted-out glycerin is quantified by spectrophotometry in the medium of the material which floats on the surface by the method described by C. […] The results are expressed as mean values of the activation percentage relative to a proof mass batch (without Cecropia extract).

The text below walks through data of patent publication US6403125B1, “Utilization of an extract of a plant of the Cecropia genus” (Cognis France (Societe Anonyme), priority 1998, dated 2002).

For the compound `CC(C)NCC(O)c1ccc(O)c(O)c1` (centres unmarked) [Isoprenaline, isoprenaline], the “% activation of the lipolysis relative to the proof mass without extract (mean)” value (0.1 μM) is recorded as “+ 45%”.
As for `Cn1c(=O)c2[nH]cnc2n(C)c1=O` [Theophylline, theophylline], the “% activation of the lipolysis relative to the proof mass without extract (mean)” value (1 mM) is on record as “+ 70%”.
